Each compound was assayed against T1, DPP-IV (Homo sapiens, UniProt P27487) (assay: Continuous fluorimetric assay of inhibition of DPP-IV peptidase activity (cleavage of Gly-Pro-AMC)). Conditions: substrate Gly-Pro-AMC 16 μM, pH 7.4, 25° C., 1% DMSO; assays carried out with human and porcine DPP-IV (comparable activities).
T1 construct: Soluble human DPP-IV lacking the transmembrane anchor (Gly31-Pro766); Pre-Pro-alpha-mating factor secretion leader (N, cleaved yes); made in house
Assay type: biochemical
Protocol: Inhibition of DPP-IV peptidase activity was monitored with a continuous fluorimetric assay. This assay is based on the cleavage of the substrate Gly-Pro-AMC (Bachem) by DPP-IV, releasing free AMC. The assay is carried out in 96-well microtiterplates. In a total volume of 100 μl compounds are preincubated with […] DPP-IV employing a buffer containing 10 mM Hepes, 150 mM NaCl, 0.005% Tween 20 (pH 7.4). […] The final concentration of DMSO is 1%. The inhibitory potential of the compounds were determined.
Soluble human DPP-IV lacking the transmembrane anchor (Gly31-Pro766) was expressed in a recombinant YEAST-strain as Pre-Pro-alpha-mating fusion. The secreted product (rhuDPP-IV-Gly31-Pro766) was purified from fermentation broth (>90% purity).

T1 sequence (P27487 31-766): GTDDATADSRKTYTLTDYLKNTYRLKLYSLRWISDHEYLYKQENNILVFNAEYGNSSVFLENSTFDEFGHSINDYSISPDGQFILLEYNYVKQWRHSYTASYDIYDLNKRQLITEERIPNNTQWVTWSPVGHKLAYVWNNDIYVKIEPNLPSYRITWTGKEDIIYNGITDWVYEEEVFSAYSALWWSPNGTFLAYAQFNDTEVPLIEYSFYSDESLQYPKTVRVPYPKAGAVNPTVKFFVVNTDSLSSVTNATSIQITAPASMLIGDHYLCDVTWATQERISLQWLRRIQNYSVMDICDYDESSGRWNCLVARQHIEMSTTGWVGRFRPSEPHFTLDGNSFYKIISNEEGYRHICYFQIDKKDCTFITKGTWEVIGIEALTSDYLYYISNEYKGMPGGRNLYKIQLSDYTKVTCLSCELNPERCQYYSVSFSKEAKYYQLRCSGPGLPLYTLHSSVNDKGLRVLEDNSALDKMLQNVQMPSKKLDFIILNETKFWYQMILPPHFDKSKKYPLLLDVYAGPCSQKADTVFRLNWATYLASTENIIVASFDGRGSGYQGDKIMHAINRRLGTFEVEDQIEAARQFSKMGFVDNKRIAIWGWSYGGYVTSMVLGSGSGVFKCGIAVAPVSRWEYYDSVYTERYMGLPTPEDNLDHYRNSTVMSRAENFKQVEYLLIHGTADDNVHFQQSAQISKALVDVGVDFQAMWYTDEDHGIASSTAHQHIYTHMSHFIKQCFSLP

Row | SMILES | IC50
1 | N[C@@H](CC(=O)N1CC(n2nccc2C(F)(F)F)C1)Cc1cc(F)c(F)cc1F [Example 54, (3R)-3-amino-1-[3-(5-trifluoromethyl-pyrazol-1-yl)azetidin-1-yl]-4-(2,4,5-trifluoro-phenyl)-butan-1-one] | < 100 nM
2 | N[C@@H](CC(=O)N1CC(n2nccc2C2CC2)C1)Cc1cc(F)c(F)cc1F [Example 56, (R)-3-amino-1-[3-(5-cyclopropyl-pyrazol-1-yl)-azetidin-1-yl]-4-(2,4,5-trifluoro-phenyl)-butan-1-one] | < 100 nM

More lines, now with the values ahead:

Row | IC50 | SMILES
3 | 101 to 1000 nM | N[C@@H](CC(=O)N1CC(n2cccn2)C1)Cc1ccccc1F [Example 52, (3R)-3-Amino-4-(2-fluoro-phenyl)-1-(3-pyrazol-1-yl-azetidin-1-yl)-butan-1-one]
4 | < 100 nM | N[C@@H](CC(=O)N1CC(n2ccc(C(F)(F)F)n2)C1)Cc1cc(F)c(F)cc1F [Example 53, (3R)-3-Amino-1-[3-(3-trifluoromethyl-pyrazol-1-yl)-azetidin-1-yl]-4-(2,4,5-trifluorophenyl)-butan-1-one]
5 | < 100 nM | N[C@@H](CC(=O)N1CC(n2ccc(C3CC3)n2)C1)Cc1cc(F)c(F)cc1F [Example 55, (R)-3-Amino-1-[3-(3-cyclopropyl-pyrazol-1-yl)-azetidin-1-yl]-4-(2,4,5-trifluoro-phenyl)butan-1-one]

From patent US20080015146A1, “Dpp-IV Inhibitors” (SANTHERA PHARMACEUTICALS (DEUTSCHLAND) AG, priority 2004, published 2008)
